This note sets out measurements from article PMC3589550 (Nature structural & molecular biology, 2011).

Ends that are not written are not given here.

In assay [1] the target is T1, HAUSP (Homo sapiens, UniProt Q93009). The assay is described as follows: In vitro deubiquitination. It counts as biochemical.
Assay [2] deals with T1, HAUSP. Put plainly: Co-IP / GST pull-down of HAUSP. The following applies: transfected 293T cells. The assay is classed as binding.
Assay [3] addresses HAUSP TRAF domain (HAUSP^62–205) (Homo sapiens, UniProt Q93009). It counts as binding. As to conditions: ITC.
The target of assay [4] is T1, HAUSP. Put plainly: In vitro DUB assay with ubiquitinated MDM2. The assay is classed as biochemical. As to conditions: HAUSP preincubated with increasing concentrations of peptide.
The subject of assay [5] is HAUSP TRAF domain. The assay is described as follows: Competitive ITC: vIRF4^202–216 vs cellular substrate peptides on the TRAF domain. It counts as binding.
Assay [6] has as its system BJAB cells. The assay is described as follows: Immunoblot of p53 pathway proteins, BJAB. The assay is classed as cell-based. The following applies: 6 h.
The test system of assay [7] is PEL cells. Put plainly: Immunoblot of p53 and transcriptional targets, PEL cells. The assay is classed as cell-based. The following applies: various PEL cells, 6 h.

T1 sequence (Q93009 whole entry): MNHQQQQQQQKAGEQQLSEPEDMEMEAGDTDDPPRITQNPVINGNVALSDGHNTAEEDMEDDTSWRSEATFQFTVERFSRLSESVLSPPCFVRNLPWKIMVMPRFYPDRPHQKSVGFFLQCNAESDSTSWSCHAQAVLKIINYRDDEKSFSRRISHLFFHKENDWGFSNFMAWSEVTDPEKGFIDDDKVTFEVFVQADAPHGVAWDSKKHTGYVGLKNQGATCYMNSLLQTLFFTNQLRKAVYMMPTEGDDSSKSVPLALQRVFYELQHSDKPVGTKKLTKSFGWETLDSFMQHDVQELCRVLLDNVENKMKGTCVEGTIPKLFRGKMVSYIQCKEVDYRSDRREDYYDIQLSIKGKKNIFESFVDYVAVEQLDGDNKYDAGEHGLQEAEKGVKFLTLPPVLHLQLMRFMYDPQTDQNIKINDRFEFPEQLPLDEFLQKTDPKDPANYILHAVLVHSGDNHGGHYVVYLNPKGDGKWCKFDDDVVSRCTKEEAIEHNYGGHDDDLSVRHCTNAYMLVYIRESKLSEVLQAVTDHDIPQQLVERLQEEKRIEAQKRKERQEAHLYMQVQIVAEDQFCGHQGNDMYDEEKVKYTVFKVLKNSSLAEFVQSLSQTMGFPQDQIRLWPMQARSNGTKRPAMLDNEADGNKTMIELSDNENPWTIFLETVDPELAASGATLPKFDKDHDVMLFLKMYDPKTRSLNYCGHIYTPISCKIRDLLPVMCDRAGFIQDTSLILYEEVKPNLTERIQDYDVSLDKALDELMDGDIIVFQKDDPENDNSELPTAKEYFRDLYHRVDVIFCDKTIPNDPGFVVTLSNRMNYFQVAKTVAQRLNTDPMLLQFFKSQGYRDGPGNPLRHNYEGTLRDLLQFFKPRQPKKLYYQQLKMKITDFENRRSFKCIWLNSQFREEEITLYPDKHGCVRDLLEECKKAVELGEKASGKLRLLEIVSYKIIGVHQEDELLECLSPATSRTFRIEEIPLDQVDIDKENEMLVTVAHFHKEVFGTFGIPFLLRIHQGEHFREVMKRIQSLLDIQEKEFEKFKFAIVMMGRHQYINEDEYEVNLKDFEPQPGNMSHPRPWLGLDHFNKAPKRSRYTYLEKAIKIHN
HAUSP TRAF domain (HAUSP^62–205), sequence (Q93009 62-205): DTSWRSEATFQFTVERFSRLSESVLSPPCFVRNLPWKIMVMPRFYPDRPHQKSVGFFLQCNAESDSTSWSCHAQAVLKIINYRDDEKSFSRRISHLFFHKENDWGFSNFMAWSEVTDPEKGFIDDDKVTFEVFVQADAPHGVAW

`CC[C@H](C)[C@H](NC(=O)[C@H](Cc1c[nH]c2ccccc12)NC(=O)[C@@H](NC(=O)[C@@H](N)CO)C(C)C)C(=O)N1CCC[C@H]1C(=O)N[C@H](C(=O)N[C@@H](CC(N)=O)C(=O)N[C@@H](CCC(=O)O)C(=O)NCC(=O)N[C@@H](C)C(=O)N[C@@H](CO)C(=O)N[C@H](C(=O)N[C@@H](CO)C(=O)NCC(=O)N[C@@H](CCSC)C(=O)O)[C@@H](C)O)C(C)C` [vif1]: the “HAUSP enzymatic activity against K48-linked polyubiquitin chains” value in assay [1] (K48-linked polyubiquitin chains) was “ineffectiveness against K48-linked polyubiquitin chains”. For the same compound, in assay [1] (purified HAUSP, K48- or K63-linked 3–7 polyubiquitin chains), the “HAUSP DUB activity” value was “minimally inhibited activity”. In addition, in assay [2], the “interaction with HAUSP” value is on record as “individually capable of interacting with HAUSP”. Besides, in assay [3], the “TRAF binding affinity, in words” value is recorded as “binds to the HAUSP TRAF domain with the highest affinity among all reported substrates”. Also, in assay [4], the “HAUSP DUB activity toward ubiquitinated MDM2” value is “effectively blocked HAUSP DUB activity when ubiquitinated MDM2 was used as a substrate”. Moreover, the “observed association constant (Kobs)” value stood at 1.09e+07 M⁻¹ in assay [5] (vIRF4^202–216 titrated as competitor against MDM2^137–152), 4.42e+07 M⁻¹ in assay [5] (vIRF4^202–216 titrated as competitor against p53^350–364) and 3.58e+07 M⁻¹ in assay [5] (vIRF4^202–216 titrated as competitor against p53^355–369). The HAUSP levels entry in assay [6] and in assay [7] was “Neither the vif1 nor vif2 peptide treatment altered HAUSP levels” in each case.
Regarding “DLVQELQEEKPSSSHL [MDM2^137–152, reference compound]”, the “association constant (Ka)” value in assay [5] (substrate peptide titrated into the HAUSP TRAF domain) amounted to 91000 M⁻¹.
